Assay results from PMC12354831 (Cell Death Discovery, 2025).

Key:
GLUT3 mutants = assay: MST binding assay, GLUT3 mutants taken together vs WT; set-up: species or system human
Method: Data from three independent measurements were analyzed using MO. Affinity Analysis software (version 2.1.3, NanoTemper Technologies).

GLUT3 [1] = target: T1, GLUT3 (Homo sapiens, UniProt P11169); assay: 2-NBDG glucose uptake competition assay in GLUT3-OE vs vector control U251-MG cells; format: cell-based; conditions: for reduction in 2-NBDG uptake: GLUT3 OE U251-MG cells, 100 μM 2-NBDG
T1 construct: expressed in transfected cells
T1 sequence (P11169 1-496): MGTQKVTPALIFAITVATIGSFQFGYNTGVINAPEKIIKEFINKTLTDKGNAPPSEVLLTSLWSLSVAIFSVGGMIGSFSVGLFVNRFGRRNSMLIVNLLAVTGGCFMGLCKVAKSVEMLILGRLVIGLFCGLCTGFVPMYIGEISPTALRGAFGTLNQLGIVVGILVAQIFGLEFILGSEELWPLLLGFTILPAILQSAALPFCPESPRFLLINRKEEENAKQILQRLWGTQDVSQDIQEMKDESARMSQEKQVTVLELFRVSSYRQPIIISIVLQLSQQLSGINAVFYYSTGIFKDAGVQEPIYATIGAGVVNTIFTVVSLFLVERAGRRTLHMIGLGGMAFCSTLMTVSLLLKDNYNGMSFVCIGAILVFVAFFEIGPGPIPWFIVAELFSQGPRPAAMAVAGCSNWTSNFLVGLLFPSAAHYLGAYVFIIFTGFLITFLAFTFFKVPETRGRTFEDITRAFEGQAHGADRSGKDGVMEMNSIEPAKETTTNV
Method: GBM cells were seeded into 96-well plates at a density of 4 × 10^4 cells per well and allowed to adhere for 24 h. After 6–12 h, the culture medium (containing 10% fetal bovine serum, FBS) was removed, and the cells were incubated in 100 µL of glucose-free DMEM medium for 1 h at 37 °C in a humidified atmosphere containing 5% CO2. The glucose-free medium was then replaced with 100 µL of DMEM containing 100 µM 2-NBDG, and the cells were incubated for an additional 30 min at 37 °C. Following incubation, the cells were washed three times with cold PBS to remove unincorporated 2-NBDG. The fluorescence intensity was immediately measured using a Synergy™ H1 automatic microplate reader with excitation and emission wavelengths set at 485 nm and 528 nm, respectively.
After 30 min of incubation at 37 °C, the cells were washed three times with cold PBS, and the fluorescence intensity was measured as described above.

GLUT3 [2] = target: T1, GLUT3; assay: Cellular uptake of TMZ and CAPE by LC-MS/MS, GLUT3 OE U251-MG cells; format: in vitro ADME; conditions: for decrease of extracellular drug concentration: GLUT3 OE U251-MG cells, remaining extracellular drug after uptake; for increase of drug uptake by GLUT3 OE: U251-MG cells, 200 μM drug, 37 °C, 15 min, intracellular level vs control
Method: A total of 6 × 10^6 cells were seeded into each well of a 6 cm Petri dish and cultured at 37 °C in a humidified atmosphere containing 5% CO2 for 8 h. The cells were then washed twice with PBS (137 mM NaCl, 2.7 mM KCl, 10 mM Na2HPO4, 1.8 mM KH2PO4, pH 7.4) and incubated in transport buffer (140 mM NaCl, 5 mM KCl, 2 mM MgCl2, 2 mM CaCl2, 30 mM Tris-HCl, pH 7.4) for 15 min at 37 °C. […] Cell supernatants were collected and stored at 4 °C for subsequent extraction. The harvested cells were washed three times with PBS and extracted with 500 µL of 80% methanol for 30 min at −80 °C. The cell lysate was then centrifuged at 14,000 × g for 5 min at 4 °C, followed by 2 min of sonication. The supernatant was transferred to a new centrifuge tube. For LC-MS/MS analysis, the cell supernatants and cell lysates were diluted at a specific ratio. A total of 100 µL of each sample was mixed with 100 µL of acetonitrile (or standard reagent) and 300 µL of internal standard solution (^2H3-TMZ 100 ng/mL and ^2H11-CAPE 20 ng/mL dissolved in acetonitrile). […] Quality control (QC) samples were prepared and analyzed alongside the experimental samples to monitor the stability and repeatability of the instrument. QC samples were inserted regularly and analyzed every 6–12 samples. Each experiment was repeated 5–6 times.
LC-MS/MS analyses were performed using a high-performance liquid chromatography (HPLC) system (Shimadzu, LC-20A) coupled to a […] (ABSciex, API4000 QTRAP). The samples were separated on a 2.1 × 100 mm ACQUITY Premier BEH C18 1.7 µm VanGuard™ FIT column (Waters, Ireland). The mobile phases consisted of: Mobile phase A (0.1% formic acid and 2.5 mM ammonium acetate in water) and Mobile phase B (0.1% formic acid and 2.5 mM ammonium acetate in acetonitrile). Gradient elution was employed, with the flow rates and gradient conditions detailed in Table S2.
The mass spectrometry conditions were as follows: Ion source: electrospray ionization (ESI); Detection mode: positive ion mode; Scanning method: multiple reaction monitoring (MRM); Spray voltage (IS): 5500 V; Ion source temperature (TEM): 555 °C; Gas curtain pressure (CUR): 25 psi; Collision activation dissociation (CAD): MEDIUM; Nebulizer gas pressure (GS1): 55 psi; Auxiliary gas pressure (GS2): 55 psi.

U251-MG cells = assay: CCK-8 IC50 determination in U251-MG cells with or without GLUT3 OE; format: cell-based, human; conditions: GLUT3 OE vs control, CCK-8, 24 h drug treatment
Method: The GBM cell line was seeded into a 96-well plate at a density of 5 × 10^3 cells per well and incubated at 37 °C in a humidified atmosphere containing 5% CO2 overnight. […] Following 24 h of drug treatment, 10 µL of CCK-8 reagent was added to each well, and the cells were incubated for an additional 1 h at 37 °C. The absorbance was then measured at 450 nm using a microplate reader.
In this study, the experimental groups were designated as Group A (cells treated with temozolomide (TMZ) or capecitabine (CAPE)), the control group as Group B (cells treated with DMSO), and the blank control group as Group C ([…]). The cell viability rate was calculated using the formula: (A-C)/(B-C) × 100%, where A, B, and C represent the absorbance values of Group A, Group B, and Group C, respectively.

CCCCCOC(=O)Nc1nc(=O)n([C@@H]2O[C@H](C)[C@@H](O)[C@H]2O)cc1F [CAPE, capecitabine]
Kd increase vs WT (GLUT3 mutants; seven mutants): > 1000 fold | reduction in 2-NBDG uptake (GLUT3 [1]; 1 μM drug): 39.4% | reduction in 2-NBDG uptake (GLUT3 [1]; 10 μM drug): 51.5% | reduction in 2-NBDG uptake (GLUT3 [1]; 100 μM drug): 69.3% | decrease of extracellular drug concentration (GLUT3 [2]): 5.4% | increase of drug uptake by GLUT3 OE (GLUT3 [2]): ~ 70% | reduction of IC50 in GLUT3 overexpressing cells compared to control cells (U251-MG cells): 94.4%

Cn1nnc2c(C(N)=O)ncn2c1=O [TMZ]
Kd increase vs WT (GLUT3 mutants; mutants T28A, S71A, Q281A, N286A, W386A, and G417A): > 1000 fold | reduction in 2-NBDG uptake (GLUT3 [1]; 1 μM drug): 36.8% | reduction in 2-NBDG uptake (GLUT3 [1]; 10 μM drug): 47.2% | reduction in 2-NBDG uptake (GLUT3 [1]; 100 μM drug): 70.1% | effect on glucose (2-NBDG) uptake in control cells (GLUT3 [1]; vector control U251-MG cells, until concentration reached 100 μM): minimally affected | decrease of extracellular drug concentration (GLUT3 [2]): 7.7% | increase of drug uptake by GLUT3 OE (GLUT3 [2]): ~ 70% | reduction of IC50 in GLUT3 overexpressing cells compared to control cells (U251-MG cells): 97.7%
